Here are results for six compounds from patent publication US9194863B2, “Treatment of pain” (priority 2011, dated 2015).

Assay [1] has as its system mice. Description: Nocifensive behavior after injection into the plantar skin of the hind paw. Format: in vivo, mouse. How it is done:
(§1) Hind paw injections, drinking tests, thermal gradient tests, temperature choice tests, hot plate, cold plate, tail clip and tail immersion assays were performed as previously described (Cao et al., 1998; Caterina et al., 2000; Karashima et al., 2009; Mocrich et al., 2005). To evoke inflammatory hyperalgesia, Complete Freund's Adjuvant (CFA, Sigma) (50 μl) was injected intraplantarly in both hindpaws 24 h before behavioral testing. Corn oil was used as vehicle control. To obtain pharmacological inhibition of TRPV1, AMG 9810 (Tocris Bioscience) dissolved in DMSO was injected i.p at 3 mg/kg during consecutive 7 days (Gavva et al., 2007; Gavva et al., 2005). DMSO was used as vehicle control. All animal experiments were carried out in accordance with the European Union Community Council guidelines and were approved by the local ethics committee.

The target in assay [2] is T1, TRPM3 (Mus musculus, UniProt J9SQF3). The following applies: cited from earlier work.
Assay [3] deals with T2, TRPM3α2 (Mus musculus, UniProt J9SQF3).
T2 construct: expressed in transfected cells; host or cells: HEK293T, transient
Put plainly: Intracellular Ca2+ responses in HEK293T cells transiently expressing TRPM3. The class given is cell-based, murine. The settings on record: PS 20 μM, capsaicin 2 μM. On the procedure: (§2) Human embryonic kidney cells, HEK293T, were grown in Dulbecco's modified Eagle's medium (DMEM) containing 10% (v/v) human serum, 2 mM L-glutamine, 2 units/ml penicillin, and 2 mg/ml streptomycin at 37° C. in a humidity-controlled incubator with 10% CO2. HEK293T cells were transiently transfected with murine TRPM3α2 (accession number AJ 544535) in the bicistronic pCAGGS/IRES-GFP vector, using Mirus TransIT-293 (Mirus corporation; Madison USA). Transfected cells were visualized by green fluorescence protein (GFP) expression whereas GFP negative cells from the same batch were used as controls. TG and DRG neurons from adult (postnatal weeks 8-12) male mice were isolated as described previously (Karashima et al., 2007). HEK293T cells stably transfected with TRPM3α2 were developed using the Flp-In System (Invitrogen).
(§3) Fura-2-based ratiometric intracellular Ca^2+ measurements were performed as described previously (Vriens et al., 2007). The following procedure was used to distinguish stimulus-induced responses from background variations in fluorescence. First, we calculated the time derivative of the fluorescence ratio (dRatio/dt), and the standard deviation (SD) of dRatio/dt in the absence of any stimulus. […] For every condition, a minimum of 100 cells derived from at least three separated isolations and in at least twelve independent measurements were analyzed.

Assay [4] concerns TG neurons. Put plainly: Fura-2 intracellular Ca2+ imaging in isolated TG neurons. Format: cell-based, mouse. The following applies: for fraction of sensitive TG neurons in Trpm3−/− preparations versus Trpm3+/+: Trpm3−/− mice. How it is done: as §2
as §3, with “stimulus. A positive response was noted when a stimulus caused an increase of dRatio/dt exceeding 5×SD.” for “stimulus.”

The target of assay [5] is T3, TRPV1 (Homo sapiens, UniProt Q8NER1).
T3 construct: expressed in transfected cells; host or cells: HEK293T, transient
Description: Intracellular Ca2+ responses in HEK293T cells transiently expressing TRPV1. Format: cell-based. The following applies: PS 20 μM, capsaicin 2 μM. On the procedure: as §3, with “stimulus. A positive response was noted when a stimulus caused an increase of dRatio/dt exceeding 5×SD.” for “stimulus.”

The subject of assay [6] is DRG neurons. Description: Fura-2 intracellular Ca2+ imaging in isolated DRG neurons. Format: cell-based, mouse. The settings on record: for fraction of sensitive DRG neurons in Trpm3−/− preparations versus Trpm3+/+: Trpm3−/− mice. How it is done:
as §2
as §3, with “stimulus. A positive response was noted when a stimulus caused an increase of dRatio/dt exceeding 5×SD.” for “stimulus.”

For assay [7], the system named is TG neurons. Description: Whole-cell patch-clamp on TG neurons. Format: cell-based, mouse. On the procedure: (§4) Whole-cell membrane currents were measured with an EPC-10 (HEKA Elektronik, Lambrecht, Germany). The sampling rate was 20 kHz and currents were digitally filtered at 2.9 kHz. For recordings on HEK293T cells, the extracellular solution contained (in mM): 138 NaCl, 5.4 KCl, 2 MgCl2, 2 CaCl2, 10 glucose, 10 HEPES (pH 7.2 with NaOH), and the pipette solution contained (in mM): 100 CsAsp, 45 CsCl, 10 EGTA, 10 HEPES, 1 MgCl (pH 7.2 with CsOH). For recordings on sensory neurons, the extracellular solution contained (in mM): 140 NaCl, 4 KCl, 2 MgCl2, 100 nM TTX, 10 TRIS (pH 7.4 with HCl), and the pipette solution contained (in mM): 140 CsCl, 0.6 MgCl2, 1 EGTA, 10 HEPES, 5 TEA (pH 7.2 with CsOH). To determine the I-V relationship of PS induced currents in neurons, all measurements were performed under monovalent free extracellular conditions in order to suppress other cationic conductances present in DRG neurons. The extracellular solution contained in mM 2 CaCl2, 2 MgCl2, 10 HEPES, 280 D-Mannitol (pH 7.2 with NMDG).
For orientation: Patch clamp records ionic current or voltage across a cell membrane.

Assay [8] deals with TRPA1 (Homo sapiens, UniProt O75762). The settings on record: read-out: EC50 as agonist of TRPA1; cited from earlier work.
In assay [9] the target is T3, TRPV1. Put plainly: Ca2+ imaging of TRPV1-mediated responses in the presence of AMG 9810. Format: cell-based.
Assay [10] addresses T1, TRPM3. Put plainly: Ca2+ imaging of TRPM3-mediated responses in the presence of AMG 9810. The class given is cell-based. How it is done: as §3, with “stimulus. A positive response was noted when a stimulus caused an increase of dRatio/dt exceeding 5×SD.” for “stimulus.”
Assay [11] has as its system mice. Description: Aversive drinking test. Format: in vivo, mouse. The following applies: PS 750 μM in drinking water. How it is done: To evaluate the contribution of TRPM3 to trigeminal nociception, we used an aversive drinking test (Caterina et al., 2000). Over a period of 3 days, mice were allowed to drink from a bottle of water for only 1 hour/day. On the fourth day, this solution was supplemented with PS (750 μM). In Trpm3^+/+ mice, this evoked a modest but significant aversion, as evidenced by a 30% reduction in consumed water volume (FIG. 4C).
as §1

The target in assay [12] is T1, TRPM3. Description: Whole-cell current measurements in TRPM3-expressing HEK293T cells. Format: cell-based, murine. Also on record: expressed in transfected cells. The following applies: PS 5 μM. On the procedure: as §4
Assay [13] has as its target T1, TRPM3. Description: Intracellular Ca2+ increase by low doses of PS at room temperature and 37° C., HEK293T stably expressing TRPM3. Also on record: expressed in transfected cells. The following applies: 100 nM PS. The class given is cell-based, murine. On the procedure: as §2, §3
In assay [14] the target is T2, TRPM3α2. Description: 96 well plate Fluo-4 assay of temperature-dependent Ca2+ responses, HEK293T stably expressing TRPM3. Format: cell-based, murine. The settings on record: PS at 10 μM. How it is done: To determine an average temperature-response relation for TRPM3, we also used a fluo-4-based assay using 96 well plates and the 7500 Real-Time PCR system (Applied Biosystems). HEK293T cells stably expressing murine TRPM3α2 (FIG. 9B) or non transfected HEK293T cells were loaded with Fluo-4-AM for 30 min, trypsinized, centrifuged, resuspended in a solution containing (in mM) 150 NaCl, 6 KCl, 2 MgCl2, 2 CaCl2, and 10 HEPES (pH 7.4 with NaOH) and transferred to a 96-well plate (at 15000-25000 cells/well; 50 μl). When indicated, PS (10 μM) was added to the wells. Fluo-4 fluorescence was measured while the well temperature was raised from 16 to 43° C. in 3-degrees steps. Background-subtracted fluorescence signals were used to calculate temperature-induced changes in fluorescence as ΔF/F16 °C, where F16 °C is the background corrected fluorescence at 16° C. and ΔF=F−F16 °C. The neurosteroids pregnenolone sulphate, progesterone and the TRPV1 activator capsaicin (all Sigma) were applied at indicated concentrations from a respectively 100 mM, 250 mM and 10 mM stock solution in DMSO.

[15] abbreviates: Trpm3+/+ mice, PS 2.5 and 5 nmol/paw, progesterone 25 nmol/paw.
[16] abbreviates: Trpv1−/−, Trpa1−/− and combined Trpv1−/−/Trpa1−/− mice.

T2 sequence (J9SQF3 1-1709 isoform J9SQF3-12): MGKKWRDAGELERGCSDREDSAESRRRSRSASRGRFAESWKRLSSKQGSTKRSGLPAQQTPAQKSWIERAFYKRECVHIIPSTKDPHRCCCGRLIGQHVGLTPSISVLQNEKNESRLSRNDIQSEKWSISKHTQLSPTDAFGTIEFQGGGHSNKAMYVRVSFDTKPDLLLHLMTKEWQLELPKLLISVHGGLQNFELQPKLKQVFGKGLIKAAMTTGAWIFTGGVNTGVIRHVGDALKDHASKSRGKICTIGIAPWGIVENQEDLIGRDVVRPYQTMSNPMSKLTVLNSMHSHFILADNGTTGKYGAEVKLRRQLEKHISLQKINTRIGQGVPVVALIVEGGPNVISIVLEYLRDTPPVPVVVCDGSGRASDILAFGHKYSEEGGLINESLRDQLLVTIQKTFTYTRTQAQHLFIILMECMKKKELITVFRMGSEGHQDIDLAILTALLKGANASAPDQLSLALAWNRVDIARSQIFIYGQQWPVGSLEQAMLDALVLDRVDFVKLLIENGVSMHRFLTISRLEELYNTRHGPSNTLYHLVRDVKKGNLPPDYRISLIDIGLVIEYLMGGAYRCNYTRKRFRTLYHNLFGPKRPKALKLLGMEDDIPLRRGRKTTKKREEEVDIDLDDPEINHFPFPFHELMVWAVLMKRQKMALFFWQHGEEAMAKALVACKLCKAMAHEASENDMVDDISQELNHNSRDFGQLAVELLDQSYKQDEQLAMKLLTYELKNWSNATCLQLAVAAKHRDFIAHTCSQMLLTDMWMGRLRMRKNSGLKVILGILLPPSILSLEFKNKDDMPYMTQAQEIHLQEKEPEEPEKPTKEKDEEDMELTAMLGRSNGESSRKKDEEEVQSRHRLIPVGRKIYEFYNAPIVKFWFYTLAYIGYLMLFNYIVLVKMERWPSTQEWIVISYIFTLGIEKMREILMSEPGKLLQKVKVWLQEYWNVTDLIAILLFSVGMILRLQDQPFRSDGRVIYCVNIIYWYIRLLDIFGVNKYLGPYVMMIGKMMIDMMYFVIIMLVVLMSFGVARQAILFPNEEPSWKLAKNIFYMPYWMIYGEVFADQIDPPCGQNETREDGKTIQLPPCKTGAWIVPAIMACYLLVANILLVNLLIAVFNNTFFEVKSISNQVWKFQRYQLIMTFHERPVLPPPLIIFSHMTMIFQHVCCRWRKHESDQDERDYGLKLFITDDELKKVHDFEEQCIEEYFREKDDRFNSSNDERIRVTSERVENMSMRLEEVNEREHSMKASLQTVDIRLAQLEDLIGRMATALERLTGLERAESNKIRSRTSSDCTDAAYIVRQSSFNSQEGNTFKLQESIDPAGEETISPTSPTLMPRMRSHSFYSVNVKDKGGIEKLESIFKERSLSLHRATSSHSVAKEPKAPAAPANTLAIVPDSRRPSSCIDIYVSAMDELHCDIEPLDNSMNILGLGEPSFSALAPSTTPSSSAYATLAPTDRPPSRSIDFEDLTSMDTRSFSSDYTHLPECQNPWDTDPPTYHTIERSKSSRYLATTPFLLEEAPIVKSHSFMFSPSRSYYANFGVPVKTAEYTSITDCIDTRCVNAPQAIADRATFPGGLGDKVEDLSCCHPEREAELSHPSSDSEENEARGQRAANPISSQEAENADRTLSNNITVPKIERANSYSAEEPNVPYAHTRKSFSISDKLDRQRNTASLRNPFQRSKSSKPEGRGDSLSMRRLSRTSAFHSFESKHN
T1 sequence (J9SQF3 1-1709 isoform J9SQF3-12): as above
T3 sequence (Q8NER1 whole entry, species assumed): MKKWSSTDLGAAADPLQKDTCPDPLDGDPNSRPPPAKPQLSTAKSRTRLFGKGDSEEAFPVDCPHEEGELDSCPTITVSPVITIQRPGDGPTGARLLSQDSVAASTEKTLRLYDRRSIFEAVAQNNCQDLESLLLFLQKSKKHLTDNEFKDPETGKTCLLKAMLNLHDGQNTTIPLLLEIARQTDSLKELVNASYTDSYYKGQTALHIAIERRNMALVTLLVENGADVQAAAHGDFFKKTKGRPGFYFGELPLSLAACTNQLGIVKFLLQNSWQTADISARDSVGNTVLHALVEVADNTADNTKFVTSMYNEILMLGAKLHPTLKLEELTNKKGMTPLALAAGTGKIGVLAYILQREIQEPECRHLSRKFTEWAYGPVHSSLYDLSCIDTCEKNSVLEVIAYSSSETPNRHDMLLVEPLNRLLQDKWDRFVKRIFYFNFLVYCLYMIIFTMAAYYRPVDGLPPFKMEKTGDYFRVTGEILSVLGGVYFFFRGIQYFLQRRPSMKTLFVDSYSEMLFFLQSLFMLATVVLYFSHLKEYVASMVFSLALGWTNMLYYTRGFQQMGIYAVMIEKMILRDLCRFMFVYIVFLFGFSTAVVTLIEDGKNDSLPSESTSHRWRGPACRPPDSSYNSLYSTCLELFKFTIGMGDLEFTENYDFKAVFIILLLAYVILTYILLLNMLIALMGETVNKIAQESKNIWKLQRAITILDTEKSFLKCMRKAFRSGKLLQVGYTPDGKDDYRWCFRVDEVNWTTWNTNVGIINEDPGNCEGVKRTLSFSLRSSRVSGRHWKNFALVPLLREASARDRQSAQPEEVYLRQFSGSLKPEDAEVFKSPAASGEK
TRPA1, sequence (O75762 whole entry, species assumed): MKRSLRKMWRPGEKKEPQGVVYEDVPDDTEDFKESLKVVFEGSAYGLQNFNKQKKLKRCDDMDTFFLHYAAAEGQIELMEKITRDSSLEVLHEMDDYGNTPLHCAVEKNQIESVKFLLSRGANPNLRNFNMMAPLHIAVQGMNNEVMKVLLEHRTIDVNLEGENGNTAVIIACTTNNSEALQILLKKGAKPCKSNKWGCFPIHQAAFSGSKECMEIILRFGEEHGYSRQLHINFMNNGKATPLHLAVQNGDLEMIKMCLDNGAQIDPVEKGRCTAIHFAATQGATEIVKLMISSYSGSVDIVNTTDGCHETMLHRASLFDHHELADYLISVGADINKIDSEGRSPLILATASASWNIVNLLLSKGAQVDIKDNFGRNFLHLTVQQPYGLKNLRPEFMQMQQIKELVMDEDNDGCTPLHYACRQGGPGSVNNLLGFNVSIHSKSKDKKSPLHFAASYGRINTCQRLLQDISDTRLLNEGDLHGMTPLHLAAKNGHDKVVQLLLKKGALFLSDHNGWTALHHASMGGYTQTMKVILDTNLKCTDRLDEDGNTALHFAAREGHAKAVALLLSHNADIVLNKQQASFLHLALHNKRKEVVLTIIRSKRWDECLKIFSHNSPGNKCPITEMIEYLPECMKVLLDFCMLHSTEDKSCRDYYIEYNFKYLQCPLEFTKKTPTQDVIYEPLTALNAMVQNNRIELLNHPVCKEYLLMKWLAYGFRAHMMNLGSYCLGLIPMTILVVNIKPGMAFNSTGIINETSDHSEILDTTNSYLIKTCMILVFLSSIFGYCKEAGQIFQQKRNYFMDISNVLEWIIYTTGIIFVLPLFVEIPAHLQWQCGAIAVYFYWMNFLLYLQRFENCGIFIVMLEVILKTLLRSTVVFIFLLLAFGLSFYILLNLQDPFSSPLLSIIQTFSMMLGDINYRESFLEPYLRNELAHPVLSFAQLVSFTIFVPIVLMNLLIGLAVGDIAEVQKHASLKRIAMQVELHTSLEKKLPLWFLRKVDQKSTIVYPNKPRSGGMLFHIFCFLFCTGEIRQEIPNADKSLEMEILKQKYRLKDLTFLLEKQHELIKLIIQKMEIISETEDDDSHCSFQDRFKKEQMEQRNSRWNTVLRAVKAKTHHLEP

`CC(=O)[C@H]1CC[C@H]2[C@@H]3CCC4=CC(=O)CC[C@]4(C)[C@H]3CC[C@]12C` [progesterone]: the “nocifensive behavior (paw licking and lifting)” value (shortened to “nocifensive behavior”) in assay [1] (setting [15]) and in [1] (Trpm3−/− mice) was “did not evoke measurable nociceptive responses” each time. Also, the TRPM3 agonist activity entry in [2] is “no TRPM3 agonist activity”.
Consider `COc1cc(CNC(=O)CCCC/C=C/C(C)C)ccc1O` [capsaicin], for which the “intracellular Ca2+ response of TRPM3-expressing cells” value in [3] is reported as “insensitive”. Further, in [1] (Trpm3−/− mice), the “nocifensive behavior” value is “evoked the normal nocifensive behavior”. The “fraction of sensitive TG neurons in Trpm3−/− preparations versus Trpm3+/+” value in assay [4] is recorded as “not changed”. Also, in assay [5], the “intracellular Ca2+ response of TRPV1-expressing cells” value is on record as “responded”. The “fraction of sensitive DRG neurons in Trpm3−/− preparations versus Trpm3+/+” value in assay [6] is listed as “not changed”. In addition, the “TG neurons responding to capsaicin” value in [7] (Trpm3+/+ mice, 13 of 23) was 57%; in assay [7] (Trpm3−/− mice, 11 of 21), 53%.
As usually defined, the EC50 is the midpoint of the concentration-response curve. With `COC(=O)C1=C(C)NC(C)=C(C(=O)OC)C1c1ccccc1[N+](=O)[O-]` [nifedipine], the EC50 was 0.4 µM in assay [8] and 30 µM in [2] (read-out: EC50 as agonist of TRPM3).
Regarding `C=CCN=C=S` [MO, mustard oil], in assay [4], the “fraction of sensitive TG neurons in Trpm3−/− preparations versus Trpm3+/+” value is “not changed”. In addition, in assay [6], the “fraction of sensitive DRG neurons in Trpm3−/− preparations versus Trpm3+/+” value is reported as “not changed”.
Regarding `CC(C)(C)c1ccc(/C=C/C(=O)Nc2ccc3c(c2)OCCO3)cc1` [AMG 9810, (E)-3-(4-t-butylphenyl)-N-(2,3-dihydrobenzo[b][1,4]dioxin-6-yl)acrylamide], the “effect on percentage of heat responders in DRG neurons” value in assay [6] (AMG 9810 5 μM) is given as “significantly reduced”. Moreover, the “effect on capsaicin responses in DRG neurons” value in [6] (AMG 9810 5 μM, Trpm3+/+ and Trpm3−/− DRG neurons) is “completely eliminated”. Further, the “heat-responsive cells remaining after treatment” value in [6] (Trpm3−/− neurons, AMG 9810 5 μM) is given as “substantial fraction of heat-responsive cells”. Also, the “TRPV1-mediated heat (42° C.) and capsaicin (2 μM) responses” value in [9] is recorded as “full inhibition”. For the same compound, in assay [10], the “TRPM3-mediated heat (42° C.) and PS (40 μM) responses” value is reported as “unaltered”.
Turning to `CC(=O)C1CCC2C3CC=C4CC(OS(=O)(=O)O)CCC4(C)C3CCC12C` (centres unmarked) [PS, pregnenolone sulphate], the “reduction in consumed water volume” value in [11] (Trpm3+/+ mice) came to 30%. For the same compound, the “aversive response in drinking test” value in assay [11] (Trpm3−/− mice) was “no aversive response”. In [3], the “intracellular Ca2+ response of TRPM3-expressing cells” value was “robust responses”. Further, the “nocifensive behavior” value in assay [1] (setting [15]) is recorded as “evoked strong nocifensive behavior”; in assay [1] (Trpm3−/− mice), “completely lacked this nocifensive response”; in [1] (combined Trpv1−/−/Trpa1−/− knockout mice), “elicited a nocifensive response that was similar to that observed in Trpm3^+/+ mice”. Further, the “current response to a low dose of PS at higher temperatures” value in assay [12] is recorded as “strongly potentiated”. For the same compound, the “Ca2+ response to PS” value in assay [13] (37° C.) was “evoked robust responses”; in assay [13] (room temperature), “subthreshold”. In assay [4] (Trpm3+/+ mice, n=273, PS 10 μM), the “TG neurons with robust and reversible calcium signals” value was determined as 57%. The “fraction of sensitive TG neurons in Trpm3−/− preparations versus Trpm3+/+” value in [4] was “drastically decreased”. The “responses in TG neurons from TRPV1/TRPA1 knockout mice” value in [4] (setting [16]) is “conserved”. Moreover, the “DRG neurons with robust and reversible calcium signals” value in assay [6] (Trpm3+/+ mice, n=303, PS 10 μM) is 58%. For the same compound, the “fraction of sensitive DRG neurons in Trpm3−/− preparations versus Trpm3+/+” value in assay [6] is “drastically decreased”. Moreover, the “responses in DRG neurons from TRPV1/TRPA1 knockout mice” value in [6] (setting [16]) is reported as “conserved”. In assay [14], the “shift of the thermal response profile to lower temperatures” value came to 6.1±0.4 degrees. Besides, the “TG neurons with inward currents of more than 10 pA” value is 65% in [7] (Trpm3+/+ mice, 15 of 23); “never observed” in assay [7] (Trpm3−/− mice, 0 of 21); 53% in assay [7] (Trpv1−/−/Trpa1−/− mice, 9 of 17).
